Assay results as given in US5543406A, “Inhibitors of 5-α-testosterone reductase” (priority 1994, dated 1996).

Assays:
Steroid 5-α-Reductase [1] = molecular target: T1, Steroid 5-α-Reductase (Homo sapiens, UniProt P31213); assay: Steroid 5-α-reductase in vitro assay, human prostate microsomes (BPH patients); format: biochemical; settings: human prostatic microsomes; 100 nM [3H]-testosterone, 1 mM NADPH, 60 minutes at 37° C.
T1 construct: microsomes derived from prostate tissue of benign prostatic hypertrophy (BPH) patients; from tissue; host or cells: prostate tissue of BPH patients, microsomes
T1 sequence (P31213 1-254): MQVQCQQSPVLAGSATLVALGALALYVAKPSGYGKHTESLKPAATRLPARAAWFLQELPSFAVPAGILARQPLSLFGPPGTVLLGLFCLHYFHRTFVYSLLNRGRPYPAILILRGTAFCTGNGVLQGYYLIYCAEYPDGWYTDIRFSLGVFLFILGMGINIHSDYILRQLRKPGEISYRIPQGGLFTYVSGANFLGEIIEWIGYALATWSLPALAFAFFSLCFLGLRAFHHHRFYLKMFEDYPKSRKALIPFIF

Steroid 5-α-Reductase [2] = assay: Steroid 5-α-reductase in vitro assay, rat prostate microsomes; format: biochemical; settings: rat prostatic microsomes; 100 nM [3H]-testosterone, 1 mM NADPH, 60 minutes at 37° C.; read-out: ID50 Rat

Structure (SMILES)	IC50 (Steroid 5-α-Reductase [1])	IC50 (Steroid 5-α-Reductase [2])
C[C@]12CC[C@H]3[C@@H](CNC4=CC(=O)CC[C@@]43C)[C@@H]1CC[C@@H]2C(=O)NC(c1ccccc1)c1ccccc1 [Compound 58, 17β-N-Diphenylmethylcarbamoyl-6-azaandrost-4-en-3-one]	< 10 nM	10 to 100 nM
C[C@]12CC[C@H]3[C@@H](CNC4=CC(=O)CC[C@@]43C)[C@@H]1CC[C@@H]2C(=O)N(c1ccccc1)c1ccccc1 [Compound 59, 17β-N-Diphenylcarbamoyl-6-azaandrost-4-en-3-one]	< 10 nM	100 to 1000 nM
C[C@]12CC[C@H]3[C@@H](CNC4=CC(=O)CC[C@@]43C)[C@@H]1CC[C@@H]2C(=O)NCC1CC2CCC1C2 (stereo partly drawn) [Compound 60, 17β-N-exo-2-Norbornylmethylcarbamoyl-6-azaandrost-4-en-3-one]	10 to 100 nM	< 10 nM
C[C@]12CC[C@H]3[C@@H](CNC4=CC(=O)CC[C@@]43C)[C@@H]1CC[C@@H]2C(=O)NC1CC2CCC1C2 (stereo partly drawn) [Compound 61, 17β-N-endo-2-Norbornylcarbamoyl-6-azaandrost-4-en-3-one]	10 to 100 nM	10 to 100 nM
CC1=C2NC[C@H]3[C@@H]4CC[C@H](C(=O)NC(C)(C)C)[C@@]4(C)CC[C@@H]3[C@@]2(C)CCC1=O [Compound 62, 17β-N-t-Butylcarbamoyl-6-azaandrost-4-methyl-4-en-3-one]	10 to 100 nM	10 to 100 nM
CC1=C2NC[C@H]3[C@@H]4CC[C@H](C(=O)CC(C)C)[C@@]4(C)CC[C@@H]3[C@@]2(C)CCC1=O [Compound 64, 17β-(1-Oxo-3-methylbutyl)-6-azaandrost-4-methyl-4-en-3-one]	< 10 nM	10 to 100 nM
C[C@]12CC[C@H]3[C@@H](CNC4=CC(=O)CC[C@@]43C)[C@@H]1CC[C@@H]2C(=O)Nc1cccc2cc3ccccc3cc12 [Compound 67, 17β-N-1-Anthracylcarbamoyl-6-azaandrost-4-en-3-one]	< 10 nM	< 10 nM
C[C@]12CC[C@H]3[C@@H](CNC4=CC(=O)CC[C@@]43C)[C@@H]1CC[C@@H]2C(=O)OC1C2CC3CC(C2)CC1C3 (stereo partly drawn) [Compound 73, 17β-Carbo-(2-adamantyl)-oxy-6-azaandrost-4-en-3-one]	< 10 nM	< 10 nM
C[C@]12CC[C@H]3[C@@H](CNC4=CC(=O)CC[C@@]43C)[C@@H]1CC[C@@H]2C(=O)OC12CC3CC(CC(C3)C1)C2 [Compound 74, 17β-Carbo-(1-adamantyl)-oxy-6-azaandrost-4-en-3-one]	< 10 nM	10 to 100 nM
CCN(CC)C(=O)[C@H]1CC[C@H]2[C@@H]3CNC4=CC(=O)C(C)C[C@]4(C)[C@H]3CC[C@]12C (stereo partly drawn) [Compound 75, 17β-N,N-Diethylcarbamoyl-6-azaandrost-2-(α,β)-methyl-4-en-3-one]	10 to 100 nM	100 to 1000 nM
CCN(CC)C(=O)/C=C/[C@H]1CC[C@H]2[C@@H]3CNC4=CC(=O)CC[C@]4(C)[C@H]3CC[C@]12C [Compound 76, 17β-1-(E)-Acrylyl(N,N-diethyl)amide-6-azaandrost-4-en-3-one]	10 to 100 nM	10 to 100 nM
CCN(CC)C(=O)[C@H]1CC[C@H]2[C@@H]3CCNC4=CC(=O)CC[C@]4(C)[C@H]3CC[C@]12C [Compound 77, 17β-N,N-Diethylcarbamoyl-6-aza-B-homoandrost-4-en-3-one]	10 to 100 nM	100 to 1000 nM
